Test results published in patent publication US20040192686A1, “Benzoazine mono-N-oxides and benzoazine 1,4 dioxides and compositions therefrom for the therapeutic use in cancer treatments” (Auckland Uniservices Limited, priority 2003, published 2004).
Counter-ions that a name gives are not always drawn.

| Structure (SMILES) | melting point |
| --- | --- |
| CN(C)CCc1nc2ccccc2[n+]([O-])n1 | 47 to 49 °C |
| Cl.[O-][n+]1nc(CCN2CCOCC2)nc2ccccc21 | 213 to 215 °C |
| CN(C)CCCc1nc2ccccc2[n+]([O-])n1.Cl | 228 to 230 °C |
| Cl.[O-][n+]1nc(CCCN2CCCCC2)nc2ccccc21 | 151 to 153 °C |
| CN(C)CCN(C)c1nc2ccccc2[n+]([O-])n1 (as salt: hydrochloride) [Compound 38, N^1,N^1,N^2-Trimethyl-N^2-(1-oxido-1,2,4-benzotriazin-3-yl)-1,2-ethanediamine] | 220 to 223 °C |
| COc1ccc2nc(NCCN(C)C)n[n+]([O-])c2c1 (as salt: hydrochloride) [Compound 92, N^1-(7-Methoxy-1-oxido-1,2,4-benzotriazin-3-yl)-N^2,N^2-dimethyl-1,2-ethanediamine] | 231 to 235 °C |
| CCOC(=O)CNc1nc2ccccc2[n+]([O-])n1 [Compound 20, Ethyl [(1-oxido-1,2,4-benzotriazin-3-yl)amino]acetate] | 136 to 138 °C |
| O=C(O)CNc1nc2ccccc2[n+]([O-])n1 [Compound 21, [(1-Oxido-1,2,4-benzotriazin-3-yl)amino]acetic acid] | 217 to 219 °C |
| COCCNc1nc2ccccc2[n+]([O-])n1 [Compound 23, N-(2-Methoxyethyl)-1,2,4-benzotriazin-3-amine 1-oxide] | 155 to 156 °C |
| N#CCCNc1nc2ccccc2[n+]([O-])n1 [Compound 26, 3-[(1-Oxido-1,2,4-benzotriazin-3-yl)amino]propanenitrile] | 191 to 193 °C |
| N#CCCCNc1nc2ccccc2[n+]([O-])n1 [Compound 27, 4-[(1-Oxido-1,2,4-benzotriazin-3-yl)amino]butanenitrile] | 184 to 187 °C |
| [N-]=[N+]=NCCCNc1nc2ccccc2[n+]([O-])n1 [Compound 28, N-(3-Azidopropyl)-1,2,4-benzotriazin-3-amine 1-oxide] | 128 to 130 °C |
| CC(C)(C)OC(=O)NCCCNc1nc2ccccc2[n+]([O-])n1 [Compound 29, tert-Butyl 3-[(1-oxido-1,2,4-benzotriazin-3-yl)amino]propylcarbamate] | 145 to 147 °C |
| CCN(CCCNc1nc2ccccc2[n+]([O-])n1)C(=O)OC(C)(C)C [Compound 32, tert-Butyl 3-[(1-oxido-1,2,4-benzotriazin-3-yl)amino]propyl(ethyl)carbamate] | 64 to 66 °C |
| [O-][n+]1nc(NCCOCCO)nc2ccccc21 [Compound 33, 3-{[2-(2-Hydroxyethoxy)ethyl]amino}-1,2,4-benzotriazine 1-oxide] | 131 to 131.5 °C |
| [N-]=[N+]=NCCOCCNc1nc2ccccc2[n+]([O-])n1 [Compound 34, 3-{[2-(2-Azidoethoxy)ethyl]amino}-1,2,4-benzotriazine 1-oxide] | 102 to 104 °C |
| CC(C)(C)ONC(=O)CCOCCNc1nc2ccccc2[n+]([O-])n1 [Compound 35, 3-{[2-(2-tert-Butyloxycarbamoylethoxy)ethyl]amino}-1,2,4-benzotriazine 1-oxide] | 134 to 137 °C |
| [O-][n+]1nc(NCCN2CCCC2)nc2ccccc21 [Compound 40, N-[2-(1-Pyrrolidinyl)ethyl]-1,2,4-benzotriazin-3-amin 1-oxid] | 141 to 143 °C |
| [O-][n+]1nc(NCCN2CCOCC2)nc2ccccc21 [Compound 41, N-[2-(4-Morpholinyl)ethyl]-1,2,4-benzotriazin-3-amine 1-oxide] | 170 to 172 °C |
| COCCc1cccc(Nc2nc3ccccc3[n+]([O-])n2)c1 [Compound 49, N-[3-(2-Methoxyethyl)phenyl]-1,2,4-benzotriazin-3-amine 1-oxide] | 122 to 124 °C |
| O=C(O)Cc1ccc(Nc2nc3ccccc3[n+]([O-])n2)cc1 [Compound 52, {4-[(1-Oxido-1,2,4-benzotriazin-3-yl)amino]phenyl}acetic acid] | 243 to 245 °C |
| COCCNC(=O)Cc1ccc(Nc2nc3ccccc3[n+]([O-])n2)cc1 [Compound 53, 2-{4-[(1-Oxido-1,2,4-benzotriazin-3-yl)amino]phenyl}-N-(2-methoxyethyl)acetamide] | 216 to 218 °C |

Now from value to compound:

| melting point | Structure (SMILES) |
| --- | --- |
| 235 to 239 °C | COc1cccc2nc(N)n[n+]([O-])c12 (hydrate or solvate) [Compound 3a, 8-Methoxy-1,2,4-benzotriazin-3-amine 1-oxid] |
| 271 to 275 °C | CSc1cccc2nc(N)n[n+]([O-])c12 (hydrate or solvate) [Compound 3f, 8-(Methylsulfanyl)-1,2,4-benzotriazin-3-amine 1-oxide] |
| 251 to 254 °C | Nc1nc2c(Cl)cccc2[n+]([O-])n1 [Compound 3aa, 5-Chloro-1,2,4-benzotriazin-3-amine 1-oxide] |
| 252 to 256 °C | Nc1nc2c(F)cccc2[n+]([O-])n1 [Compound 3ab, 5-Fluoro-1,2,4-benzotriazin-3-amine 1-oxide] |
| 269 to 272 °C | Nc1nc2c([N+](=O)[O-])cccc2[n+]([O-])n1 [Compound 3ac, 5-Nitro-1,2,4-benzotriazin-3-amine-1-oxide] |
| 248 to 252 °C | CSc1cccc2c1nc(N)n[n+]2[O-] [Compound 3ad, 5-Methylsulfanyl-1,2,4-benzotriazin-3-amine 1-oxide] |
| 265 °C (dec.) | Cc1cccc2nc(N)n[n+]([O-])c12 [Compound 3b, 8-Methyl-1,2,4-benzotriazin-3-amine 1-oxide] |
| 270 to 278 °C (dec.) | Nc1nc2cccc(F)c2[n+]([O-])n1 [Compound 3c, 8-Fluoro-1,2,4-benzotriazin-3-amine 1-oxide] |
| 280 to 290 °C (dec.) | Nc1nc2cccc(Cl)c2[n+]([O-])n1 [Compound 3d, 8-Chloro-1,2,4-benzotriazin-3-amine 1-oxide] |
| 280 to 286 °C (dec.) | Nc1nc2cccc(C(F)(F)F)c2[n+]([O-])n1 [Compound 3e, 8-Trifluoromethyl-1,2,4-benzotriazin-3-amine 1-oxid] |
| 233 to 236 °C | CCCCSc1cccc2nc(N)n[n+]([O-])c12 [Compound 3g, 8-(Butylsulfanyl)-1,2,4-benzotriazin-3-amine 1-oxide] |
| 270 °C (dec.) | Cc1ccc2nc(N)n[n+]([O-])c2c1 [Compound 3j, 7-Methyl-1,2,4-benzotriazin-3-amine 1-oxide] |
| 280 to 290 °C (dec.) | Nc1nc2ccc(F)cc2[n+]([O-])n1 [Compound 3k, 7-Fluoro-1,2,4-benzotriazin-3-amin 1-oxide] |
| 309 °C (dec.) | Nc1nc2ccc(Cl)cc2[n+]([O-])n1 [Compound 3l, 7-Chloro-1,2,4-benzotriazin-3-amine 1-oxide] |
| 290 °C (dec.) | Nc1nc2ccc(C(F)(F)F)cc2[n+]([O-])n1 [Compound 3m, 7-Trifluoromethyl-1,2,4-benzotriazin-3-amine 1-oxide] |
| 245 to 247 °C | CSc1ccc2nc(N)n[n+]([O-])c2c1 [Compound 3n, 7-(Methylsulfanyl)-1,2,4-benzotriazin-3-amine 1-oxide] |

| melting point | Structure (SMILES) |
| --- | --- |
| 215 to 217 °C | CCCCSc1ccc2nc(N)n[n+]([O-])c2c1 [Compound 3o, 7-(Butylsulfanyl)-1,2,4-benzotriazin-3-amine 1-oxide] |
| 269 to 272 °C | Nc1nc2ccc([N+](=O)[O-])cc2[n+]([O-])n1 [Compound 3p, 7-Nitro-1,2,4-benzotriazin-3-amine 1-oxide] |
| 265 to 270 °C | COc1ccc2c(c1)nc(N)n[n+]2[O-] [Compound 3q, 6-Methoxy-1,2,4-benzotriazin-3-amine 1-oxide] |
| 263 °C (dec.) | Cc1ccc2c(c1)nc(N)n[n+]2[O-] [Compound 3r, 6-Methyl-1,2,4-benzotriazin-3-amine 1-oxide] |
| 256 to 258 °C | Nc1nc2cc(-c3ccccc3)ccc2[n+]([O-])n1 [Compound 3s, 6-Phenyl-1,2,4-benzotriazin-3-amine 1-oxide] |
| 276 to 280 °C | Nc1nc2cc(F)ccc2[n+]([O-])n1 [Compound 3t, 6-Fluoro-1,2,4-benzotriazin-3-amine 1-oxide] |
| 280 to 284 °C (dec.) | Nc1nc2cc(C(F)(F)F)ccc2[n+]([O-])n1 [Compound 3v, 6-Trifluoromethyl-1,2,4-benzotriazin-3-amine 1-oxide] |
| 248 to 250 °C | CSc1ccc2c(c1)nc(N)n[n+]2[O-] [Compound 3w, 6-(Methylsulfanyl)-1,2,4-benzotriazin-3-amine 1-oxide] |
| 180 to 182 °C | CCCCSc1ccc2c(c1)nc(N)n[n+]2[O-] [Compound 3x, 6-(Butylsulfanyl)-1,2,4-benzotriazin-3-amine 1-oxide] |
| 267 °C (dec.) | COc1cccc2c1nc(N)n[n+]2[O-] [Compound 3y, 5-Methoxy-1,2,4-benzotriazin-3-amine 1-oxide] |
| 253 to 255 °C | Cc1cccc2c1nc(N)n[n+]2[O-] [Compound 3z, 5-Methyl-1,2,4-benzotriazin-3-amine 1-oxide] |
| 231 to 233 °C | CN(C)c1ccc2nc(N)n[n+]([O-])c2c1 [Compound 11, N^7,N^7-Dimethyl-1,2,4-benzotriazine-3,7-diamine 1-oxide] |
| 247 to 251 °C | CCN(CC)c1ccc2c(c1)nc(N)n[n+]2[O-] [Compound 13, N^6, N^6-Diethyl-1,2,4-benzotriazine-3,6-diamine 1-oxide] |
| 201 to 203 °C | COCCOc1ccc2nc(N)n[n+]([O-])c2c1 [Compound 14, 7-(2-Methoxyethoxy)-1,2,4-benzotriazin-3-amine 1-oxide] |
| 228 to 230 °C | Nc1nc2ccc(OCCBr)cc2[n+]([O-])n1 [Compound 15, 7-(2-Bromoethoxy)-1,2,4-benzotriazin-3-amine 1-oxide] |
| 175 to 181 °C | Nc1nc2ccc(OCCN3CCOCC3)cc2[n+]([O-])n1 [Compound 17, 7-[2-(4-Morpholinyl)ethoxy]-1,2,4-benzotriazin-3-amin 1-oxide] |
